Source: patent US6989148B2, “Treatment of diabetes” (priority 1994, dated 2006)
“Also recorded” adds a separate entry of the source.

Key:
Type I diabetic subjects = assay: Sustacal meal preceded by subcutaneous GLIP injection in Type I diabetics (Example 5); assay type: in vivo, human; conditions: 100 μg GLIP subcutaneously prior to test meal
Excerpt: 7 Type I diabetic subjects were studied.
The results are shown in FIG. 5. *indicates statistically significant differences between treatments (p<0.05)

[1] = system: subjects with remission phase Type I diabetes; assay: Intravenous glucose infusion with intravenous GLIP (Example 2); assay type: in vivo, human; conditions: IV GLIP 1.2 pm/kg/min for 60 min along with IV glucose 20 g over 60 min; FIG. 2
Method: Four subjects with remission phase Type I diabetes were studied during intravenous glucose infusion. Subjects prepared for the tests as described in Example 1, but received an intravenous infusion of glucose (20 g over 60 min. constant rate)instead of the Sustacal meal. […] Blood levels of glucose and C-peptide were monitored as in Example 1.

normal volunteers = assay: Sustacal meal preceded by subcutaneous GLIP injection in normal volunteers (Example 4); assay type: in vivo, human; conditions: subcutaneous GLIP (100 μg; b67 prints 1.00 μg) before Sustacal meal
Excerpt: Results are shown in FIG. 4. *indicates statistically significant differences between treatments (p<0.05).

Type 1 diabetic subject = assay: GLIP along with insulin before Sustacal meal, post-prandial glycaemia (Example 6); assay type: in vivo, human; conditions: 50 μg GLIP with 5 units insulin (half the usual dose) subcutaneously before meal; one subject; FIG. 6 Panel A
Method: One Type 1 diabetic subject was given GLIP along with insulin and the effects on post-prandial glycaemia observed. The subject received 5 units of insulin and 50 μg GLIP as subcutaneous injections immediately prior to ingestion of a Sustacal meal as described in Example 1. Blood levels of GLIP were monitored by a standard radioimmunoassay method.

Type II diabetics = conditions: Gutniak et al. (1992), WO93/18786; cited from earlier work
humans and other mammals = conditions: Wettergren et al. (1993); cited from earlier work
[2] = system: subjects with remission phase Type I diabetes; assay: Sustacal meal with infusion of 0.75 pm/kg/min GLIP versus saline (Example 3); assay type: in vivo, human; conditions: 0.75 pmol/kg/min GLIP along with Sustacal meal, versus saline control; FIG. 3
Method: The test was conducted as described in Example 1 and blood glucose and C-peptide levels were measured. On a further test day, the subjects were studied during saline infusion after a similar Sustacal meal.

[3] = system: subjects with remission phase Type I diabetes; assay: Sustacal meal with intravenous GLIP infusion 1.2 pm/kg/min (Example 1); assay type: in vivo, human
Method: 7 subjects with remission phase Type I diabetes were studied after ingestion of a standardised meal of Sustacal (Upjohn) (delivering […]). Subjects continued their normal insulin treatment programme on the day prior to the test and, on the day of the test, omitted their morning insulin injection and arrived fasting at 8:00 am. […] Infusion was continued for 120 minutes. Blood levels of glucose, C-peptide, gastrin, glucagon and HPP were monitored by standard radioimmunoassay methods in samples taken before and at intervals during the study, up to 180 minutes. On another test day, subjects were given the Sustacal meal alone and the same analytes were similarly monitored.

[4] = IV infusion 1.2 pm/kg/min after Sustacal meal

With “Glucagon-like peptide 1(7-36)amide [GLIP]” the “blood glucose levels compared to control” value (Type I diabetic subjects; no morning insulin, FIG. 5 Panel A) was “lowering of blood glucose levels”, the “pancreatic polypeptide (HPP) levels” value (Type I diabetic subjects; FIG. 5 Panel D) was “delayed rise in pancreatic polypeptide (HPP) levels” and the “insulin secretion over control levels” value (Type I diabetic subjects; FIG. 5 Panels B and C) was “no enhancement of insulin secretion over control levels”. The blood glucose level [1] was “improved control of blood glucose level”, the “secretion of endogenous insulin” value [1] was “stimulated secretion of endogenous insulin” and the “increase in blood levels of C-peptide” value (normal volunteers) was “delay in increase”. For the same substance, the “increase in blood levels of HPP” value (normal volunteers) was “delay in increase”, the “increase in blood levels of glucose” value (normal volunteers) was “delay in increase” and the “increase in blood levels of insulin” value (normal volunteers) was “delay in increase”. For the same substance, the “blood glucose after Sustacal meal (maximum)” value (Type 1 diabetic subject) was at most 8 mM, the “effect of combination with oral hypoglycaemic agents” value (Type II diabetics) was “synergistic effect” and the gastric emptying (humans and other mammals) was “delay of gastric emptying”. The “increase in blood glucose” value [2] was “increase in glucose was less than in the control experiment”, the “rise in C-peptide” value [2] was “rise in C-peptide was similar to the control experiment” and the “blood levels of C-peptide” value [3, 4] was “prevented a significant increase in blood levels of C-peptide”. For the same substance, the “plasma glucagon levels stimulated by the meal” value [3, 4] was “prevented the mean rise in plasma glucagon levels”, the “secretion of pancreatic polypeptide (PP) after meal” value ([3]; IV infusion 1.2 pm/kg/min after Sustacal meal, FIG. 1 Panel C) was “this response was absent during GLIP infusion” and the “gastrin levels / gastrin response” value ([3]; IV infusion 1.2 pm/kg/min after Sustacal meal, FIG. 1 Panel E) was “normal gastrin response; also recorded: not significantly affected”. For the same substance, the “blood glucose level after a meal” value ([3]; IV infusion 1.2 pm/kg/min for 120 min after Sustacal meal, FIG. 1 Panel A) was “excellent control of blood glucose level”.
